Experimental findings from patent publication US8163906B2, “Dihydroquinone and dihydronaphthridine inhibitors of JNK” (Roche Palo Alto, LLC, priority 2007, dated 2012) are described below.

Like-named read-outs stand apart in the source and are kept apart here. Where only a bound is given, the exact number is not on record here.

Data set [1] relates to TNFα-induced IL-6 production. Kind of data set: Rat in vivo TNFα-induced IL-6 production assay, oral gavage. The arrangement: species or system Female Wistar-Han rats. The note with it: 30 min prior to TNF-α i.p. challenge, plasma 90 min after challenge. The method, then:
Female Wistar-Han rats procured from Charles River Laboratories were allowed to acclimate for one week prior to use and achieve an approximate body weight of 101-130 g. Rats were administered test compound (N=8 per compound) via oral gavage 30 min prior to an intraperitoneal challenge of 0.5 μg recombinant rat TNF-α (Biosource). Blood was collected via cardiocentesis 90 min after TNF-α challenge. Plasma was prepared using lithium heparin separation tubes (BD microtainer) and frozen at −80° C. until analyzed. IL-6 levels were determined using a rat specific IL-6 ELISA kit (Biosource). The percent inhibition and ED50 values (calculated as the dose of compound at which […] is 50% of the control value) were determined.

Data set [2] concerns TNFα-induced IL-6 production. Kind of data set: Rat in vivo TNFα-induced IL-6 production assay, subcutaneous. Also noted: species or system Female Wistar-Han rats. Particulars: plasma 90 min after TNF-α challenge. How it is done: Female Wistar-Han rats procured from Charles River Laboratories were allowed to acclimate for one week prior to use and achieve an approximate body weight of 114-132 g. Rats were administered compound 18 (N=8 per dose) subcutaneously 30 min prior to an intra-peritoneal challenge of 0.5 μg recombinant rat TNF-α (Biosource). Blood was collected via cardiocentesis 90 min after TNF-α challenge. Plasma was prepared using lithium heparin separation tubes (BD microtainer) and frozen at −80° C. until analyzed. IL-6 levels were determined using a rat specific IL-6 ELISA kit (Biosource). The percent inhibition and ED50 values (calculated as the dose of compound at which […] is 50% of the control value) were determined.

In the next data set the target is Human JNK1α1 (Homo sapiens, UniProt P45983). Kind of data set: JNK assay in vitro, phosphorylation of GST-ATF2 with [γ-33P] ATP (JNK1). Particulars: 1 μM ATF2, 30° C. 30 min. The format is biochemical. The method, then: (§1) JNK activity was measured by phosphorylation of GST-ATF2 (19-96) with [γ-^33P] ATP. […] Human JNK2α2 assay contains 1 nM enzyme, 1 μM ATF2, 8 μM ATP with 1 uCi [γ-^33P] ATP. Human JNK1α1 assay contains 2 nM enzyme, 1 μM ATF2, 6 μM ATP with 1 μCi [γ-^33P] ATP. […] ATP. The enzyme assay was carried out in the presence or absence of several compound concentrations. JNK and compound were pre-incubated for 10 min., followed by initiation of the enzymatic reaction by adding ATP and the substrate. The reaction mixture was incubated at 30° C. for 30 min. […] The incorporation of ^33P into ATF2 was quantified on a microplate scintillation counter (Packard Topcount). Compound inhibition potency on JNK was measured by IC50 value generated from ten concentration inhibition curves fitted into the 3-parameter model: % inhibition=Maximum/(1+(IC50/[Inhibitor])^slope). Data were analyzed on Microsoft Excel for parameter estimation.
Sequence of Human JNK1α1 (P45983 1-384 isoform P45983-2): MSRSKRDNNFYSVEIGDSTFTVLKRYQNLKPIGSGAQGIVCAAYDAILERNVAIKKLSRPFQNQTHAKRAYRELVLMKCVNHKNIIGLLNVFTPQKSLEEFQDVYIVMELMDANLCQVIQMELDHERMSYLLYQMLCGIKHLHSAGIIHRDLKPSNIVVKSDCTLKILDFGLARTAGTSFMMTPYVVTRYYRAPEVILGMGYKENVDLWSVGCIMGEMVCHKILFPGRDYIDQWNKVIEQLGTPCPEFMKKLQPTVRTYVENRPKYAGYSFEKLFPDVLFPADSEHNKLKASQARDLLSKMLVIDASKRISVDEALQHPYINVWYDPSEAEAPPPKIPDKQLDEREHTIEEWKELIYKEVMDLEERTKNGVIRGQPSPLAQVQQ

A further data set deals with Human JNK2α2 (Homo sapiens, UniProt P45984). As to the kind of experiment: JNK assay in vitro, phosphorylation of GST-ATF2 with [γ-33P] ATP (JNK2). The format is biochemical. Particulars: ATP at Km (8 μM), 1 μM ATF2, 30° C. 30 min. How it is done:
as §1

Setting [3] is: ATP at Km (6 μM), read-out: IC50 vs. JNK1.
Where [4] appears, read: IC50 vs. JNK1, ATP at Km (6 μM).

Sequence of Human JNK2α2 (P45984 whole entry): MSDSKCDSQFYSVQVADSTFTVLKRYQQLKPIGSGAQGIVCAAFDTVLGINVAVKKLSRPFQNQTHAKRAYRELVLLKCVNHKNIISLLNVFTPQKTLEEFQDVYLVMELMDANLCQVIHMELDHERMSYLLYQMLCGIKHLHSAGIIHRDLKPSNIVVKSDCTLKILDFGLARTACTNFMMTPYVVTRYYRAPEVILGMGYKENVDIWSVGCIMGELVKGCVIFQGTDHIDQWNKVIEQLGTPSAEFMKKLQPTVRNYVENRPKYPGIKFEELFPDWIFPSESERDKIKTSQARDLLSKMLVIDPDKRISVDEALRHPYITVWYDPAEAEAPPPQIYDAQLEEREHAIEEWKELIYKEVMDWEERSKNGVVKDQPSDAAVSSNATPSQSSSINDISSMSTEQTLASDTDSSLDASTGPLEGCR

With `COC(=O)c1c(Cc2ccc(C(=O)NCCO)cc2)c(=O)c2ccc(Cl)cc2n1-c1ccccc1` [Compound 18, 7-chloro-3-[4-(2-hydroxyethylcarbamoyl)-benzyl]-4-oxo-1-phenyl-1,4-dihydroquinoline-2-carboxylic acid methyl ester], the “IL-6 Inhibition (%)” value in data set [1] (3 mg/Kg) is given as 53%; in data set [2] (0.3 mg/Kg), 30.01%; in data set [2] (1.0 mg/Kg), 47.83%; in data set [2] (3.0 mg/Kg), 54.85%; in data set [2] (10 mg/Kg), 71.15%.

`COC(=O)c1c(Cc2ccc(S(=O)(=O)N3CCN(C)CC3)cc2)c(=O)c2ccc(Cl)cc2n1-c1ccccc1` [Compound 30, 7-chloro-3-[4-(4-methyl-piperazine-1-sulfonyl)-benzyl]-4-oxo-1-phenyl-1,4-dihydroquinoline-2-carboxylic acid methyl ester]: the melting point is 223.3 to 226.6 °C. The IC50 at Human JNK1α1 (setting [3]) stood at 35.5 nM. Moreover, the “IL-6 Inhibition (%)” value in data set [1] (30 mg/Kg) was found to be 46%. This molecule had an IC50 on Human JNK2α2 of 86.3 nM.

`COC(=O)c1c(Cc2ccc(S(=O)(=O)N(C)C)cc2)c(=O)c2ccc(Cl)cc2n1-c1ccccc1` [Compound 32, 7-Chloro-3-(4-dimethylsulfamoyl-benzyl)-4-oxo-1-phenyl-1,4-dihydroquinoline-2-carboxylic acid methyl ester] returned a melting point of 218.1 to 219.5 °C. The IC50 at Human JNK1α1 (setting [3]) was 44.5 nM. Further, the concentration for half-maximal inhibition (IC50) at Human JNK2α2 came out at 129 nM.

`COC(=O)C(=O)NS(=O)(=O)c1ccc(Cc2c(C(=O)OC)n(-c3ccccc3)c3cc(Cl)ccc3c2=O)cc1` [Compound 64, 7-Chloro-3-[4-(methoxyoxalyl-sulfamoyl)-benzyl]-4-oxo-1-phenyl-1,4-dihydroquinoline-2-carboxylic acid methyl ester]: the IC50 on Human JNK1α1 (setting [3]) came out at 603 nM; against Human JNK2α2, 2060 nM.

In turn, `COC(=O)c1c(Cc2ccc(S(=O)(=O)NCCO)cc2)c(=O)c2ccc(Cl)cc2n1-c1ccccc1` [Compound 65, 7-chloro-3-[4-(2-hydroxy-ethylsulfamoyl)-benzyl]-4-oxo-1-phenyl-1,4-dihydro-quinoline-2-carboxylic acid methyl ester] yielded a melting point of 191.5 to 193.1 °C. The 50% inhibitory concentration (IC50) on Human JNK1α1 (setting [3]) is 32.8 nM. The molecule also displayed an IC50 against Human JNK2α2 of 95.7 nM.

Take `COC(=O)c1c(Cc2ccc(S(=O)(=O)N3CCNCC3)cc2)c(=O)c2ccc(Cl)cc2n1-c1ccccc1.O=C(O)C(F)(F)F` [Compound 66, 7-chloro-4-oxo-1-phenyl-3-[4-(piperazine-1-sulfonyl)-benzyl]-1,4-dihydro-quinoline-2-carboxylic acid methyl ester trifluoroacetate]: the melting point was 203 to 205 °C. On Human JNK1α1 (setting [4]), this molecule yielded a half-inhibitory concentration (IC50) of 18.1 nM. This molecule also gave an IC50 against Human JNK2α2 of 44.5 nM.

In turn, `COC(=O)c1c(Cc2ccc(S(=O)(=O)N3CCNCC3)cc2)c(=O)c2ccc(Cl)cc2n1-c1ccccc1.Cl` [Compound 67, 7-Chloro-4-oxo-1-phenyl-3-[4-(piperazine-1-sulfonyl)-benzyl]-1,4-dihydroquinoline-2-carboxylic acid methyl ester bishydrochloride] gave a melting point of 214 to 215.5 °C. This molecule displayed an IC50 against Human JNK1α1 (setting [4]) of 30.4 nM. The same molecule yielded an IC50 at Human JNK2α2 of 48.5 nM.

`COC(=O)c1c(Cc2ccc(S(=O)(=O)N3CCC(O)CC3)cc2)c(=O)c2ccc(Cl)cc2n1-c1ccccc1` [Compound 69, 7-Chloro-3-[4-(4-hydroxypiperidine-1-sulfonyl)-benzyl]-4-oxo-1-phenyl-1,4-dihydroquinoline-2-carboxylic acid methyl ester] came in with a melting point of 170 to 171 °C. Moreover, the concentration for half-maximal inhibition (IC50) at Human JNK1α1 (setting [3]) is 18.4 nM. In addition, the IC50 against Human JNK2α2 turned out to be 47 nM.

`CC(=O)c1c(Cc2ccc(S(=O)(=O)N3CCC(O)CC3)cc2)c(=O)c2ccc(Cl)cc2n1-c1ccccc1` [Compound 70, 2-Acetyl-7-chloro-3-[4-(4-hydroxypiperidine-1-sulfonyl)-benzyl]-1-phenyl-1H-quinolin-4-one]: the melting point lay in the range of 145.5 to 147.2 °C. Moreover, the IC50 on Human JNK1α1 (setting [3]) came out at 134 nM. Besides, at Human JNK2α2, the IC50 turned out to be 399 nM.

`CC(=O)c1c(Cc2ccc(S(=O)(=O)N3CCN(C)CC3)cc2)c(=O)c2ccc(Cl)cc2n1-c1ccccc1` [Compound 72, 2-acetyl-7-chloro-3-[4-(4-methylpiperazine-1-sulfonyl)-benzyl]-1-phenyl-1H-quinolin-4-one] returned a melting point of 206.3 to 208 °C. The half-maximal inhibitory concentration (IC50) at Human JNK1α1 (setting [3]) stood at 154 nM. At Human JNK2α2, the half-inhibitory concentration (IC50) worked out at 336 nM.

The molecule `CCC(=O)c1c(Cc2ccc(S(=O)(=O)N3CCN(C)CC3)cc2)c(=O)c2ccc(Cl)cc2n1-c1ccccc1` [Compound 80, 7-chloro-3-[4-(4-methylpiperazin-1-sulfonyl)benzyl]-1-phenyl-2-propionyl-1H-quinlin-4-one] came in with a melting point above 300 °C. For the same molecule, the concentration for half-maximal inhibition (IC50) at Human JNK1α1 (setting [3]) was 193 nM. The same molecule registered a half-maximal inhibitory concentration (IC50) against Human JNK2α2 of 477 nM.

On to `COC(=O)c1c(Cc2ccc(S(=O)(=O)NCC(C)(C)O)cc2)c(=O)c2ccc(Cl)cc2n1-c1ccccc1` [Compound 85, 3-[4-(2-Hydroxy-2-methylpropylsulfonamoyl)benzyl]-4-oxo-7-chloro-1-phenyl-1,4-dihydroquinoline-2-carboxylic acid methyl ester], for which the melting point was in the range of 240 to 242.6 °C. At Human JNK1α1 (setting [3]), the IC50 stood at 48.1 nM. In addition, on Human JNK2α2, the half-inhibitory concentration (IC50) came to 118 nM.

Take `COC(=O)c1c(Cc2ccc(S(=O)(=O)N3CC[C@H](O)C3)cc2)c(=O)c2ccc(Cl)cc2n1-c1ccccc1` [Compound 87, 7-Chloro-3-[4-(3-hydroxypyrrolidine-1-sulfonyl)-benzyl]-4-oxo-1-phenyl-1,4-dihydroquinoline-2-carboxylic acid methyl ester]: the melting point fell in the range of 135 to 136 °C. Moreover, the IC50 at Human JNK1α1 (setting [3]) was found to be 33.4 nM. Besides, the half-maximal inhibitory concentration (IC50) against Human JNK2α2 stood at 83.2 nM.

For `CC(=O)c1c(Cc2ccc(S(=O)(=O)NCC(C)(C)O)cc2)c(=O)c2ccc(Cl)cc2n1-c1ccccc1` [Compound 88, 3-[4-(2-hydroxy-2-methylpropylsulfonamoyl)benzyl]-4-oxo-7-chloro-1-phenyl-2-acetyl-1,4-dihydroquinoline], the concentration for half-maximal inhibition (IC50) at Human JNK1α1 (setting [3]) came to 245 nM; against Human JNK2α2, 840 nM.

The molecule `COC(=O)c1c(Cc2ccc(S(=O)(=O)N3CCC(O)CC3)cc2)c(=O)c2ccc(F)cc2n1-c1ccccc1` [Compound 110] showed a melting point of 232 to 233 °C. Moreover, at Human JNK1α1 (setting [3]), the half-inhibitory concentration (IC50) came out at 50.2 nM. Also, the midpoint of inhibition on Human JNK2α2, the IC50, lay at 201 nM.

The molecule `COC(=O)c1c(Cc2ccc(S(=O)(=O)C(C)CO)cc2)c(=O)c2ccc(Cl)cc2n1-c1ccccc1` (stereo not drawn) [Compound 117] returned a melting point of 175.3 to 180.3 °C. Further, on Human JNK1α1 (setting [3]), the IC50 was determined as 32 nM. Further, the IC50 at Human JNK2α2 turned out to be 86.7 nM.

Turning to `COC(=O)c1c(Cc2cnn(C)c2)c(=O)c2ccc(C(F)(F)F)nc2n1-c1ccccc1` [Compound 129, 3-(1-methyl-1H-pyrazol-4-ylmethyl)-1-4-oxo-phenyl-7-trifluoromethyl-1H-[1,8]naphthyridine-2-carboxylic acid methyl ester], the IC50 at Human JNK1α1 (setting [3]) was 252 nM; against Human JNK2α2 it was 562 nM.

Molecule `COC(=O)c1c(CN2CCC(N3CCOCC3)CC2)c(=O)c2ccc(F)cc2n1-c1ccccc1` [Compound 135] registered a melting point of 161 to 163 °C. Moreover, the 50% inhibitory concentration (IC50) at Human JNK1α1 (setting [3]) worked out at 250 nM. The same molecule registered an IC50 against Human JNK2α2 of 2100 nM.

`Nc1cccc(-n2c(-c3ncco3)c(Cc3ccccc3)c(=O)c3ccc(Cl)cc32)n1` [Compound 141, 1-(6-amino-pyridin-2-yl)-3-benzyl-7-chloro-2-oxazol-2-yl-1H-quinolin-4-one]: the melting point fell in the range of 279.3 to 282.8 °C. The IC50 on Human JNK1α1 (setting [3]) was 612 nM. The IC50 on Human JNK2α2 came to 2090 nM.
